Experimental data as given in PubChem BioAssay AID180 (DTP/NCI, 2004).
Values joined by “and” are separate entries in the source; they are usually repeats but may differ in a detail not shown here. Equal entries are not always repeated.

Test system: BDF1 mice, Adenocarcinoma 755 s.c., tumor weight T/C
Test: NCI In Vivo Anticancer Drug Screen. Data for tumor model Adenocarcinoma 755 (subcutaneous) in B6D2F1 (BDF1) mice
Settings: endpoint: mean tumor weight, schedule: Q01DX011 (ip), higher = larger tumour
In short: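 Compound activity was tested in mice carrying transplanted tumors. Survival or tumor size was measured, and each value is the treated-group measurement divided by that of the vehicle-treated control group (T/C).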

[1] = dose: 25.0 mg/kg/injection, vehicle: methylcellulose (MC)
[2] = dose: 50.0 mg/kg/injection, vehicle: methylcellulose (MC)
[3] = dose: 100.0 mg/kg/injection, vehicle: methylcellulose (MC)
[4] = dose: 125.0 mg/kg/injection, vehicle: carboxymethylcellulose (CMC)
[5] = dose: 250.0 mg/kg/injection, vehicle: carboxymethylcellulose (CMC)
[6] = dose: 500.0 mg/kg/injection, vehicle: carboxymethylcellulose (CMC)
[7] = dose: 200.0 mg/kg/injection, vehicle: saline
[8] = dose: 125.0 mg/kg/injection, vehicle: methylcellulose (MC)
[9] = dose: 250.0 mg/kg/injection, vehicle: methylcellulose (MC)
[10] = dose: 30.0 mg/kg/injection, vehicle: carboxymethylcellulose (CMC)
[11] = dose: 60.0 mg/kg/injection, vehicle: carboxymethylcellulose (CMC)
[12] = dose: 25.0 mg/kg/injection, vehicle: carboxymethylcellulose (CMC)
[13] = dose: 15.0 mg/kg/injection, vehicle: methylcellulose (MC)

With `Cc1ccc(CNc2ncnc3[nH]ncc23)cc1C` the T/C [1] was 95 % of control, the T/C [2] was 72 % of control and the T/C [3] was 64 % of control. The T/C (dose: 300.0 mg/kg/injection, vehicle: methylcellulose (MC)) was 68 % of control.

`Cn1c(=O)c2c(nc(/N=C/c3ccccc3)n2C)n(C)c1=O` was tested, and the T/C [1] was 51 % of control.

`CCCCCCCCn1cnc2c(=S)nc[nH]c21` was tested, and the T/C [4] was 84 % of control, the T/C [5] was 67 % of control and the T/C [6] was 102 % of control.

For `OC(CN1CCCCC1)c1ccc(/C=C/c2ccc(Cl)cc2)cc1` (centres undefined), the T/C (dose: 118.0 micrograms/kg/injection, vehicle: methylcellulose (MC)) was 40 % of control, the T/C (dose: 237.0 micrograms/kg/injection, vehicle: methylcellulose (MC)) was 55 % of control and the T/C (dose: 475.0 micrograms/kg/injection, vehicle: methylcellulose (MC)) was 49 % of control.

With `CS(=O)(=O)OCC(O)C(O)COS(C)(=O)=O` (centres undefined) the T/C [4] was 65 % of control, the T/C [7] was 66 % of control and the T/C [5] was 20 % of control. The T/C [6] was 6 % of control and the T/C (dose: 800.0 mg/kg/injection, vehicle: saline) was 17 % of control.

For `Cc1ccc(N=Nc2c(S(=O)(=O)O)cc3cc(NC(=O)Nc4ccc5c(O)c(N=Nc6ccc7cc(S(=O)(=O)O)ccc7c6)c(S(=O)(=O)O)cc5c4)ccc3c2O)c(C)c1`, the T/C (dose: 45.0 mg/kg/injection, vehicle: carboxymethylcellulose (CMC)) was 81 % of control.

In the case of `Cn1c(=O)c2c(ncn2CC(=O)O)n(C)c1=O`, the T/C (dose: 63.0 mg/kg/injection, vehicle: methylcellulose (MC)) is reported as 106 % of control, the T/C [8] is reported as 89 % of control and the T/C [9] is reported as 112 % of control. For the same compound, the T/C (dose: 500.0 mg/kg/injection, vehicle: methylcellulose (MC)) was 117 % of control.

For `Nc1[nH]c(=O)[nH]c(=O)c1C(=O)CCl`, the T/C [10] was 77 % of control.

For `Cc1cc2nc3c(=O)[nH]c(=O)nc-3n(CCO)c2cc1C`, the T/C (dose: 800.0 mg/kg/injection, vehicle: methylcellulose (MC)) was 98 % of control and the T/C (dose: 1000.0 mg/kg/injection, vehicle: methylcellulose (MC)) was 95 % of control.

With `CSc1ncn(C)c2ncnc1-2` the T/C [10] was 58 % of control and the T/C [11] was 71 % of control.

`CC(=O)OCC1OC(n2cnc3c(Cl)nc(N)nc32)C(OC(C)=O)C1OC(C)=O` (centres undefined) was tested, and the T/C [10] was 114 % of control, the T/C [11] was 118 % of control and the T/C (dose: 120.0 mg/kg/injection, vehicle: carboxymethylcellulose (CMC)) was 78 % of control. For the same compound, the T/C (dose: 240.0 mg/kg/injection, vehicle: carboxymethylcellulose (CMC)) was 72 % of control.

For `Cc1cccc(-c2c3ccccc3cc3c2ccc2ccccc23)c1`, the T/C (dose: 30.0 mg/kg/injection, vehicle: methylcellulose (MC)) was 96 % of control, the T/C (dose: 60.0 mg/kg/injection, vehicle: methylcellulose (MC)) was 76 % of control and the T/C (dose: 120.0 mg/kg/injection, vehicle: methylcellulose (MC)) was 79 % of control. For the same compound, the T/C (dose: 240.0 mg/kg/injection, vehicle: methylcellulose (MC)) was 119 % of control.

For `Nc1nc(N)c(N)c(N)n1`, the T/C (dose: 50.0 mg/kg/injection, vehicle: saline) was 82 % of control, the T/C [7] was 92 % of control and the T/C (dose: 400.0 mg/kg/injection, vehicle: saline) was 90 % of control.

With `C=CCC1(CCC)C(=O)NC(=O)NC1=O` the T/C (dose: 17.5 mg/kg/injection, vehicle: methylcellulose (MC)) was 79 % of control and 86 % of control, the T/C (dose: 70.0 mg/kg/injection, vehicle: methylcellulose (MC)) was 23 % of control and 41 % of control and the T/C (dose: 140.0 mg/kg/injection, vehicle: methylcellulose (MC)) was 42 % of control.

For `OCn1cccn1`, the T/C (dose: 20.0 mg/kg/injection, vehicle: other) was 68 % of control, the T/C (dose: 20.0 mg/kg/injection, vehicle: saline) was 89 % of control and the T/C (dose: 40.0 mg/kg/injection, vehicle: other) was 23 % of control. The T/C (dose: 40.0 mg/kg/injection, vehicle: saline) was 45 % of control, the T/C (dose: 80.0 mg/kg/injection, vehicle: other) was 2 % of control and the T/C (dose: 80.0 mg/kg/injection, vehicle: saline) was 27 % of control. The T/C (dose: 160.0 mg/kg/injection, vehicle: saline) was 2 % of control.

In the case of `O=C(O)/C=C\C(=O)Nc1nccs1`, the T/C [12] is reported as 80 % of control.

With `CC(C)CSc1nc(N)nc2c1ncn2CC(C)C` the T/C [1] was 21 % of control, the T/C [2] was 12 % of control and the T/C [3] was 1 % of control.

For `CCCCNc1nc(SCc2ccc(Cl)cc2Cl)ncc1C`, the T/C [13] was 78 % of control, the T/C (dose: 31.0 mg/kg/injection, vehicle: methylcellulose (MC)) was 91 % of control and the T/C (dose: 62.0 mg/kg/injection, vehicle: methylcellulose (MC)) was 84 % of control. The T/C [8] was 72 % of control and the T/C [9] was 60 % of control.

For `NS(=O)(=O)c1nc(=S)c2[nH]cnc2[nH]1`, the T/C [12] was 108 % of control, the T/C (dose: 75.0 mg/kg/injection, vehicle: carboxymethylcellulose (CMC)) was 117 % of control and the T/C (dose: 225.0 mg/kg/injection, vehicle: carboxymethylcellulose (CMC)) was 79 % of control.

In the case of `Cc1cnc(SCc2ccccc2Cl)nc1N(C)C`, the T/C [13] is reported as 89 % of control and the T/C [8] is reported as 109 % of control.

For `CCCSc1nc(N)nc2c1ncn2CC(C)C`, the T/C (dose: 6.25 mg/kg/injection, vehicle: methylcellulose (MC)) was 31 % of control, the T/C (dose: 12.5 mg/kg/injection, vehicle: methylcellulose (MC)) was 25 % of control and the T/C [1] was 4 % of control. The T/C [2] was 1 % of control.

`CCOC1CCCC(n2cnc3c(Cl)ncnc32)O1` (centres undefined) was tested, and the T/C (dose: 7.81 mg/kg/injection, vehicle: methylcellulose (MC)) was 64 % of control, the T/C (dose: 15.63 mg/kg/injection, vehicle: methylcellulose (MC)) was 65 % of control and the T/C (dose: 31.25 mg/kg/injection, vehicle: methylcellulose (MC)) was 43 % of control. The T/C (dose: 62.5 mg/kg/injection, vehicle: methylcellulose (MC)) was 3 % of control and 17 % of control.
